This is an account of results in PubChem BioAssay (NCI).

Test systems include SR leukemia; HS 578T breast; SF-295 CNS; ACHN renal; SNB-75 CNS; BT-549 breast; IGROV1 ovarian; MCF7 breast; UACC-62 melanoma; U251 CNS.
Holding throughout (assay): NCI tumour cell line growth inhibition, 48 h

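Five compound concentrations were applied to cells in 96-well plates for 48 hours; endpoints were derived by simple linear interpolation of the resulting dose-response curve. Here, GI50 denotes the concentration required for 50% inhibition of growth. The concentration for full growth arrest is given as TGI.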 A value given as a limit tells only on which side of the number the result lay.

In the case of `C[C@]12CCc3nc(Nc4ccc(O)cc4)sc3C1=CC[C@@H]1[C@@H]2CC[C@]2(C)/C(=N/NC(N)=S)CC[C@@H]12`, the GI50 in the test with SR leukemia was 0.454 µM; in the test on HS 578T breast it was 1.75 µM; in the test on SF-295 CNS it was 1.57 µM; with ACHN renal it was 1.59 µM; with SNB-75 CNS, 0.68 µM; in the test with BT-549 breast, 1.47 µM. Further, the GI50 in the test on IGROV1 ovarian was 1.45 µM; in the test with MCF7 breast, 1.15 µM; in the test on UACC-62 melanoma it was 1.43 µM; in the test on U251 CNS, 1.29 µM. Further, the TGI in the test with SR leukemia was above 100 µM; in the test on HS 578T breast, 6.36 µM; with SF-295 CNS, 3.48 µM; with ACHN renal, 2.99 µM; in the test on SNB-75 CNS it was 2.46 µM; in the test on BT-549 breast, 3.99 µM. For the same compound, the TGI was determined as 3 µM in the test with IGROV1 ovarian, 3.01 µM in the test on MCF7 breast, 2.89 µM in the test on UACC-62 melanoma and 2.6 µM in the test on U251 CNS.

Turning to `O=C(Nc1ccc(-n2cc(-c3ccncc3)c(-c3ccc(Cl)c(O)c3)n2)cc1)c1cc(C(F)(F)F)cc(C(F)(F)F)c1`, the GI50 was 9.51 µM with SR leukemia; 5.32 µM in the test on HS 578T breast; 3.31 µM with SF-295 CNS; 6.47 µM in the test with ACHN renal; 2.82 µM in the test on SNB-75 CNS; 13.3 µM in the test on BT-549 breast. Also, the GI50 is 11.5 µM in the test with IGROV1 ovarian, 3.53 µM in the test on MCF7 breast, 14.4 µM with UACC-62 melanoma and 4.91 µM with U251 CNS. Also, the TGI in the test on SR leukemia is above 100 µM; in the test on HS 578T breast it was above 100 µM; in the test on SF-295 CNS it was 18.1 µM; in the test on ACHN renal, 31.1 µM; in the test on SNB-75 CNS it was 28.2 µM; in the test with BT-549 breast it was 91.2 µM. The TGI in the test with IGROV1 ovarian is 34.5 µM; in the test on MCF7 breast, 13.8 µM; with UACC-62 melanoma, above 100 µM; in the test with U251 CNS, 22 µM.

As for `COc1cc([C@@H]2c3cc4c(cc3[C@H](SC(=N)N)[C@H]3COC(=O)[C@H]23)OCO4)cc(OC)c1OC`, the GI50 was 0.0897 µM in the test with SR leukemia; 0.264 µM in the test on HS 578T breast; 0.0369 µM with SF-295 CNS; 0.41 µM with ACHN renal; 0.477 µM in the test with SNB-75 CNS; 2.3 µM in the test on BT-549 breast. Further, the GI50 in the test with IGROV1 ovarian was 0.227 µM; in the test on MCF7 breast, 0.0586 µM; in the test on UACC-62 melanoma, 1.64 µM; with U251 CNS, 0.311 µM. The TGI in the test with SR leukemia is above 100 µM; in the test with HS 578T breast, above 100 µM; in the test with SF-295 CNS it was 0.19 µM; in the test with ACHN renal, above 84.2 µM; in the test with SNB-75 CNS, above 100 µM; with IGROV1 ovarian it was 4.66 µM. Also, the TGI in the test with MCF7 breast, with UACC-62 melanoma and in the test with U251 CNS was above 100 µM throughout.

With `Nc1nc(-c2ccccc2)c(CC(=O)O)s1`, the TGI with SR leukemia, in the test on HS 578T breast, in the test with SF-295 CNS, in the test with ACHN renal, in the test with SNB-75 CNS and in the test with BT-549 breast was above 100 µM each time. Moreover, the TGI in the test on IGROV1 ovarian, in the test with MCF7 breast, with UACC-62 melanoma and in the test with U251 CNS was above 100 µM each time.

Regarding `OCc1ccc(-c2ccc(-c3ccc(CO)o3)o2)o1`, the GI50 in the test on SR leukemia is above 100 µM; in the test with HS 578T breast, above 31.2 µM; with SF-295 CNS it was 23.7 µM; in the test on ACHN renal, 35.9 µM; in the test on SNB-75 CNS it was 23.2 µM; in the test with BT-549 breast, above 100 µM. In addition, the GI50 was 16.7 µM in the test with MCF7 breast, 16.7 µM with UACC-62 melanoma and 39.1 µM in the test with U251 CNS. Also, the TGI in the test with SR leukemia was above 100 µM; with HS 578T breast it was above 62.6 µM; with SF-295 CNS, above 100 µM; in the test on ACHN renal it was above 100 µM; in the test on SNB-75 CNS, 79.7 µM; in the test with BT-549 breast, above 100 µM. The TGI was above 31.2 µM in the test on IGROV1 ovarian, above 100 µM in the test with MCF7 breast, above 100 µM in the test on UACC-62 melanoma and above 100 µM in the test on U251 CNS.

Take `O=C(CCCCN1CCN(CCCCC(=O)Nc2ccccc2C#C/C=C\C#Cc2ccccc2C(F)(F)F)CC1)Nc1ccccc1C#C/C=C\C#Cc1ccccc1C(F)(F)F`: the GI50 in the test with SR leukemia was 3.23 µM; with HS 578T breast, 11.2 µM; in the test with SF-295 CNS, 19 µM; in the test with ACHN renal, 20.9 µM; in the test on SNB-75 CNS, 10.3 µM; in the test on BT-549 breast, 8.94 µM. In addition, the GI50 in the test with IGROV1 ovarian was 9.37 µM; in the test with MCF7 breast it was 9.97 µM; in the test on UACC-62 melanoma, 11 µM; with U251 CNS it was 9.01 µM. Moreover, the TGI was 16.6 µM in the test with SR leukemia; 25.3 µM in the test with HS 578T breast; above 50 µM with SF-295 CNS; above 50 µM in the test with ACHN renal; 26.9 µM with SNB-75 CNS; 17.4 µM with BT-549 breast. For the same compound, the TGI in the test on IGROV1 ovarian came out at 26.2 µM; with MCF7 breast, 23 µM; in the test on UACC-62 melanoma, 22.8 µM; with U251 CNS it was 18.9 µM.

`O=C1Nc2ccc(-c3cccnc3)cc2/C1=C/c1cc(Br)c(O)c(Br)c1`: the GI50 was 8.24 µM in the test with SR leukemia; 5.67 µM in the test on HS 578T breast; 5.25 µM with SF-295 CNS; 8.15 µM in the test on ACHN renal; above 13 µM in the test on SNB-75 CNS; 6.05 µM in the test on BT-549 breast. Besides, the GI50 is 7.09 µM in the test on IGROV1 ovarian, 11.4 µM in the test on MCF7 breast, 3.54 µM in the test on UACC-62 melanoma and 6.11 µM in the test on U251 CNS. Also, the TGI is above 25 µM in the test with SR leukemia; above 22 µM with HS 578T breast; 13.7 µM with SF-295 CNS; above 25 µM in the test on ACHN renal; above 25 µM with SNB-75 CNS; above 18.9 µM with BT-549 breast. Moreover, the TGI in the test on IGROV1 ovarian was above 25 µM; with MCF7 breast it was above 25 µM; in the test with UACC-62 melanoma it was 9.87 µM; with U251 CNS, above 25 µM.

For `Cc1ccc(C(=O)Nc2ccc(Oc3cc4cnn(C)c4cc3-c3cn[nH]c3)c(F)c2)c(=O)n1-c1ccc(F)cc1`, the GI50 with SR leukemia is above 38.8 µM; with HS 578T breast it was 7.35 µM; in the test with SF-295 CNS, 0.0856 µM; in the test on ACHN renal, 2.9 µM; in the test with SNB-75 CNS, 5.61 µM; in the test with BT-549 breast it was 7.05 µM. In addition, the GI50 was above 100 µM with IGROV1 ovarian, 3.2 µM in the test with MCF7 breast, 2.08 µM with UACC-62 melanoma and 32.9 µM in the test with U251 CNS. The TGI with SR leukemia, in the test with HS 578T breast, in the test with SF-295 CNS, with ACHN renal, in the test with SNB-75 CNS and in the test with BT-549 breast was above 100 µM throughout. Further, the TGI in the test on IGROV1 ovarian, with MCF7 breast, with UACC-62 melanoma and in the test on U251 CNS was above 100 µM in each case.
